Measurements taken from patent US7205003B2, “Method and topical formulation for treating skin conditions associated with aging” (Dermatrends, Inc., priority 2001, dated 2007).
Like-named read-outs stand apart in the source and are kept apart here.

Tests used:
[1] = cited from earlier work
[2] = in vitro keratolysis study: protein released from ground adult foot callus, BioRad protein assay
Method: An in vitro keratolysis study was performed to compare the capability of glycolic acid and a base for removing protein from stratum corneum. Adult foot callus was collected, grounded and the portion between 50–80 mesh was used. Glycolic acid and sodium hydroxide solutions (concentration =0.05 M) were prepared in distilled water. Ten mg of ground callus powder was place in a test tube. Four ml of a test chemical was added to the callus and the test tube was placed in a shaker and incubated in a water bath at 37° C. for a predetermined incubation time. The incubation time periods were 10 min., 40 min, 2 hours, 4 hours, 6 hours and 24 hours. Six samples of each base were tested a total of six times each at each of the aforementioned incubation time periods.
At the end of each incubation period, the test tube was removed from the shaker and the test tube was centrifuged. The solution was removed and filtered, and the protein in the solution was then determined using a BioRad® protein assay kit.

[3] = cited from earlier work; remark: listed apart in the source
[4] = Example 1, 0.05 M, all time points, versus glycolic acid / water control
[5] = Example 2, 0.05 M, 10 minutes, versus glycolic acid, other bases, water control

## O=P([O-])([O-])O.[Na+].[Na+] [Sodium phosphate, dibasic, anhydrous]
[1]; 1.0% (1%)
  pH of Aqueous Solution: 9.1 (1%)

## [Na+].[OH-] [NaOH, Sodium hydroxide]
[1]; 0.05%
  pH of Aqueous Solution: 12
[1]; 0.5%
  pH of Aqueous Solution: 13
[1]; 5%
  pH of Aqueous Solution: 14
[2]; Example 1, 0.05 M
  amounts of protein released at 6 hours and 24 hours versus 10 minutes, 40 minutes, 2 hours and 4 hours: significantly higher
[2]; [4]
  protein released, comparison in words: released more protein
[2]; [5]
  protein released, comparison in words: released more protein

## CC(N)(CO)CO [2-amino-2-methyl-1,3-propanediol]
[1]; 0.1 m
  pH of Aqueous Solution: 10.8 (0.1 m)

## O=C([O-])CC(O)(CC(=O)[O-])C(=O)[O-].[K+].[K+].[K+] [Potassium citrate]
[1]; concentration not given
  pH of Aqueous Solution: ~8.5

## O.O.O.O.O.O.O.O.O.O.O.O.O=P([O-])([O-])[O-].[Na+].[Na+].[Na+] [Sodium phosphate, tribasic dodecahydrate]
[1]; 0.1%
  pH of Aqueous Solution: 11.5
[1]; 0.5%
  pH of Aqueous Solution: 11.7
[1]; 1.0% (1%)
  pH of Aqueous Solution: 11.9

## O.O.O.O.O.O.O.O.O.O.O.O.O=P([O-])([O-])O.[Na+].[Na+] [Sodium phosphate, dibasic, dodecahydrate]
[1]; concentration not given
  pH of Aqueous Solution: ~9.5

## O=C(O)CO [Glycolic Acid, reference compound]
[2]; [4]
  protein released, comparison in words: did not show statistical differences in comparison with water
[2]; [5]
  protein released, comparison in words: did not show significant differences in comparison with water

## CC(=O)[O-].[Na+] [Sodium acetate, anhydrous]
[1]; 0.1 N
  pH of Aqueous Solution: ~8.9 (0.1 N)

## N.N.O=P(O)(O)O [Ammonium phosphate, dibasic]
[1]; concentration not given
  pH of Aqueous Solution: ~8

## O.O.O=P([O-])([O-])O.[Na+].[Na+] [Sodium phosphate, dibasic, dihydrate]
[1]; concentration not given
  pH of Aqueous Solution: ~9.5

## N [Ammonium hydroxide]
[1]; 0.001 N
  pH of Aqueous Solution: 10.27
[1]; 1 N
  pH of Aqueous Solution: 11.27

## O.O.O.O.O.O.O.O=P([O-])([O-])O.[Na+].[Na+] [Sodium phosphate, dibasic, heptahydrate]
[1]; concentration not given
  pH of Aqueous Solution: ~9.5

## [O]=[Mg] [Magnesium oxide]
[1]; saturated solution in water
  pH of Aqueous Solution: 10.3 (saturated aqueous solution)

## OCCNCCO [Diethanolamine]
[1]; 0.1 N
  pH of Aqueous Solution: 11.0 (0.1 N)

## CC(C)(N)CO [2-amino-2-methyl-1-propanol]
[1]; 0.1 m
  pH of Aqueous Solution: 11.3 (0.1 m)

## [O]=[Ca] [Calcium oxide]
[3]
  solubility in water, in words: Soluble in water, Form Ca(OH)2

## O=P([O-])([O-])O.[Na+].[Na+] [Sodium phosphate, dibasic]
[1]; concentration not given
  pH of Aqueous Solution: ~9.5

## O=C([O-])[O-].[Na+].[Na+] [Sodium carbonate anhydrous]
[1]; concentration not given
  pH of Aqueous Solution: ~11.6
